{"source": "patent US4889935A", "about": "“Aminoguanidine derivatives” (American Home Products Corporation, priority 1989, dated 1989)", "key": {"[1]": {"test_system": "LTB4 synthesis by rat polymorphonuclear leukocytes (lipoxygenase)", "test": "inhibition of LTB4 synthesis by rat glycogen-elicited polymorphonuclear leukocytes (PMN)", "assay_type": "cell-based, rat (female Wistar)", "method": "This is especially true with respect to 5,12-diHETE, which is also denoted as LTB4 [See Ford-Hitchinson, J. Roy. Soc. Med., 74, 831 (1981)]. The assay of this Example measures the ability of the compounds of the invention to inhibit the synthesis of LTB4 by rat glycogenelicited polymorphonuclear leukocytes (PMN).\nThe assay is carried out as follows:\nRat polymorphonuclear leukocytes (PMNs) are obtained from female Wistar rats (150-200 g) which receive an injection of 6% glycogen (10 ml i.p.). Rats are sacrificed 18-24 hours post injection by CO2 asphyxiation and the elicited cells are harvested by peritoneal lavage using physiological saline (0.9% NaCl). The exudate is centrifuged at 400 x g for 10 minutes. The supernatant fluid is discarded and the cell pellet is resuspended to a concentration of 2.0×10^7 cells/ml in HBSS containing Ca^++ and Mg^++ and 10 μM L-cysteine.\nTo 1 ml aliquots of cell suspension, test drugs or vehicle are added, then preincubated at 37° C. for 10 minutes. […] Supernatants are then analyzed by HPLC analysis on a 15 cm×4.6 mm ID Supelcosil LC-18 (Supelco)(3M) column, using a two solvent system at a flow rate of 1.4 ml total flow as follows: […]\nInjections: 150 μl of each supernatant is injected directly onto column and ^3 H arachidonic acid metabolites are monitored using an on-line radioactivity detector (Ramona, IN/US, Fairfield, NJ). […]"}, "[2]": {"test_system": "carrageenan paw edema (acute inflammatory response) in Sprague-Dawley rats", "test": "rat carrageenan paw edema assay", "assay_type": "in vivo, rat (Sprague-Dawley)", "conditions": "for % Inhibition (peroral) of paw edema: 1 hour before carrageenan, 3 hours", "method": "The compounds of the invention are further tested in the rat carrageenan paw edema assay to determine their ability to inhibit the acute inflammatory response. This assay is carried out as follows: 140-180 gm mal Sprague-Dawley rats, in groups of 6 animals are injected subcutaneously in the right paw with 0.1 ml of 1% carrageenan at zero time. Mercury plethysmographic readings (ml) of the paw are made at zero time and 3 hours later. Test compounds are suspended or dissolved in 0.5% methycellulose and given perorally 1 hour prior to carrageenan administration. The increase in paw volume (edema in ml.) produced by the carrageenan is measured. […] Unpaired Student's t-test is used to determine statistical significance."}, "[3]": {"test_system": "adjuvant-induced polyarthritis in Sprague-Dawley rats", "test": "adjuvant arthritis assay", "assay_type": "in vivo, rat (Sprague-Dawley)", "conditions": "oral dose 30 mg/kg"}}}
{"compound": "CC(=NNC(=N)N)c1cccc(OCc2ccc3ccccc3n2)c1", "note": "[Example 2, 2-[1-[3-(2-Quinolinylmethoxy)phenyl]ethylidene]hydrazinecarboximidamide]", "values": [{"measurement": ">50% Inhibitory at 50 μm (LTB4 synthesis)", "setting": "[1]", "result": "+ (those compounds having an inhibition of >50%)"}, {"measurement": "% Inhibition (peroral) of paw edema", "setting": "[2]; at 100 mg/kg peroral", "result": 43, "unit": "%"}]}
{"compound": "COc1ccc2c(c1)c(CC(=O)O)c(C)n2C(=O)c1ccc(Cl)cc1", "note": "[Indomethacin, reference compound]", "values": [{"measurement": "ED50", "setting": "[2]; Rattus norvegicus, po, 3 h, read-out: Oral ED50 (95% C.L.) mg/kg", "result": 3.7, "unit": "mg/kg"}]}
{"compound": "CC(=NNC(=N)N)c1cccc(OCc2ccc3ccccc3c2)c1", "note": "[Example 1, 2-[1-[3-(2-Naphthalenylmethoxy)phenyl]ethylidene]-hydrazinecarboximidamide,0.1 hydrate]", "values": [{"measurement": "% Change of Right Paw Edema at Day 4", "setting": "[3]; day 4", "result": 50, "unit": "%"}, {"measurement": "% Change of Left Paw Edema at Day 16", "setting": "[3]; day 16", "result": 31, "unit": "%"}, {"measurement": "% Inhibition (peroral) of paw edema", "setting": "[2]; at 50 mg/kg peroral", "result": 42, "unit": "%"}]}
